Results published in patent US7901692B2, “Nontypeable Haemophilus influenzae virulence factors” (Nationalwide Children's Hospital, Inc., priority 2003, dated 2011).

Assays:
NTHi sapF::mTn5 mutants = experiment: Broth minimal inhibitory concentration (MIC) analysis for protamine; type: cell-based, nontypeable Haemophilus influenzae
From the text: To ensure no secondary mutation in the original sapF::mTn5 mutant contributed to the various phenotypes of this mutant, the parent strain 86-028NP was transformed with the 6 kb EcoRV fragment containing the sapF::mTn5 allele from the pBlueA1 plasmid. The wild type sapF gene was replaced in this strain by homologous recombination with the sapF::mTn5 allele. One Km resistant clone was confirmed to harbor a miniTn5 interrupted sapF gene by PCR and Southern blot analysis. This clone was further characterized together with the sapF::mTn5 strain and designated RcsapF::mTn5.
(§1) Since the sap mutants of S. typhimurium and E. chrysanthemi were reported to be hypersensitive to certain antimicrobial peptides, sensitivity to several commercial available cationic peptides against the NTHi parent and the sapF mutant strains was analyzed. […] Broth minimal inhibitory concentration (MIC) analyses for protamine determined that the MIC of protamine for the sapF::mTn5 mutants was lower than that for the parent strain (0.2 mg/ml versus 0.4 mg/ml). […] Thus, the sapF gene product is not required for growth in enriched media, and the lack of growth of the sapF mutants at the lower protamine concentrations in sBHI broth was not due to a growth defect. Therefore, the sapF mutation may be responsible for the phenotype of increased sensitivity to protamine, and the in vivo attenuation property of the sapF mutant.

[1] = system: NTHi parent strain 86-028NP; experiment: as above; type: cell-based, nontypeable Haemophilus influenzae; settings: aerobic growth in sBHI broth
Procedure: as §1

## protamine
NTHi sapF::mTn5 mutants; sapF::mTn5 mutant, more sensitive (relative to parent strain)
  sensitivity of mutant to the action of protamine: 3 fold
NTHi sapF::mTn5 mutants; sapF::mTn5 mutants, aerobic growth in sBHI broth
  MIC of protamine: 200 µg/mL
[1]
  MIC of protamine: 400 µg/mL
